# Assay results published in US20250195483A1, “SPIRO PIPERIDINE DERIVATIVES AS INHIBITORS OF APOL1 AND METHODS OF USING SAME” (Vertex Pharmaceuticals Incorporated, priority 2022, published 2025).
# Target: T1, APOL1 (Homo sapiens, UniProt O14791)
# T1 sequence (O14791 1-398): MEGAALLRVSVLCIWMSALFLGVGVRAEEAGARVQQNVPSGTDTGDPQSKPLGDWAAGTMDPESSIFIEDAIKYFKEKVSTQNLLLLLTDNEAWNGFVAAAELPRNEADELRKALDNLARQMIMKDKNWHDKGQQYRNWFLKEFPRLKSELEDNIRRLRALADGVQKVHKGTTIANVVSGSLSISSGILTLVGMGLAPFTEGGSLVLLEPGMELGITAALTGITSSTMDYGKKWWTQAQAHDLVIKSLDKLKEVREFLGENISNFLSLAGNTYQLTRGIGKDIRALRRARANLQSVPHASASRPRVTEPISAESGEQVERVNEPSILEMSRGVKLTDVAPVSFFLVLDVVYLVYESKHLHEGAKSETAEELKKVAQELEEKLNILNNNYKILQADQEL
# Experiment: MultiTox-Fluor Multiplex Cytotoxicity Assay, tet-inducible APOL1 T-REx-HEK293 cells (G0, G1 or G2 clone not specified for Table 20)
# Type: cell-based
# Conditions: tet-induced, 24 hours with compound, ratio of dead to live cells, read-out: IP50 (i.e., IC50 for cell proliferation)
# Outline: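 HEK293 T-REx cells with tet-inducible APOL1 G0, G1 or G2 clone, 23,400/well, treated with tetracycline plus compound (top 10 μM, 10-point 3-fold, duplicate) for 24 h at 37° C. MultiTox-Fluor dead/live fluorescence ratio, normalized to no-tet (100% viability) and 50 ng/mL tet (0% viability) controls, then curve-fitted.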
row,Compound,IC50 [nM]
1,"CNC(=O)C1OC2(CCN(Cc3cnn(CCS(C)(=O)=O)c3)CC2)c2cc(Cl)ccc21 (stereo not shown) [Compound 210, 5-chloro-N-methyl-1′-[[1-(2-methylsulfonylethyl)pyrazol-4-yl]methyl]spiro[1H-isobenzofuran-3,4′-piperidine]-1-carboxamide]",50 to 500
2,"CNC(=O)C1OC2(CCN(Cc3cnn(-c4cnc(C)nc4)c3)CC2)c2cc(Cl)ccc21 (stereo not shown) [Compound 211, 5-chloro-N-methyl-1′-[[1-(2-methylpyrimidin-5-yl)pyrazol-4-yl]methyl]spiro[1H-isobenzofuran-3,4′-piperidine]-1-carboxamide]",≤ 50
3,"NC(=O)C1OC2(CCN(Cc3cnn(-c4cccc(C(F)(F)F)c4)c3)CC2)c2cc(Cl)ccc21 (stereo not shown) [Compound 212, 5-chloro-1′-[[1-[3-(trifluoromethyl)phenyl]pyrazol-4-yl]methyl]spiro[1H-isobenzofuran-3,4′-piperidine]-1-carboxamide]",≤ 50
4,Cc1c(CN2CCC3(CC2)OC(C(N)=O)c2ccc(Cl)cc23)cnn1-c1ccccc1 (stereo not shown) [Compound 213],50 to 500
5,CS(=O)(=O)CCn1cc(CN2CCC3(CC2)OC(C(N)=O)c2ccc(Cl)cc23)cn1 (stereo not shown) [Compound 214],≤ 50
6,Cc1ncc(CN2CCC3(CC2)OC(C(N)=O)c2ccc(Cl)cc23)cn1 (stereo not shown) [Compound 215],≥ 500
7,Cn1cc(CN2CCC3(CC2)OC(C(N)=O)c2ccc(Cl)cc23)cn1 (stereo not shown) [Compound 216],≤ 50
8,N#Cc1ccc(CN2CCC3(CC2)OC(C(N)=O)c2ccc(Cl)cc23)cc1 (stereo not shown) [Compound 217],50 to 500
9,Cc1ccc(CN2CCC3(CC2)OC(C(N)=O)c2ccc(Cl)cc23)nn1 (stereo not shown) [Compound 218],≥ 500
10,NC(=O)C1OC2(CCN(Cc3cnn(C4CCS(=O)(=O)C4)c3)CC2)c2cc(Cl)ccc21 (stereo not shown) [Compound 219],≤ 50
11,CC(C)n1cc(CN2CCC3(CC2)OC(C(N)=O)c2ccc(Cl)cc23)cn1 (stereo not shown) [Compound 220],≥ 500
12,Cc1nc(CN2CCC3(CC2)OC(C(N)=O)c2ccc(Cl)cc23)co1 (stereo not shown) [Compound 221],≥ 500
13,Cc1nc(CN2CCC3(CC2)OC(C(N)=O)c2ccc(Cl)cc23)c[nH]1 (stereo not shown) [Compound 222],≥ 500
14,CS(=O)(=O)c1ccc(CN2CCC3(CC2)OC(C(N)=O)c2ccc(Cl)cc23)cc1 (stereo not shown) [Compound 223],50 to 500
15,CS(=O)(=O)c1ccc(CN2CCC3(CC2)OC(C(N)=O)c2ccc(Cl)cc23)c(F)c1 (stereo not shown) [Compound 224],≥ 500
16,NC(=O)c1ccc(CN2CCC3(CC2)OC(C(N)=O)c2ccc(Cl)cc23)cc1 (stereo not shown) [Compound 225],≤ 50
17,"NC(=O)C1OC2(CCN(Cc3cn[nH]c3)CC2)c2cc(Cl)ccc21 (stereo not shown) [Compound 226, 5-chloro-1′-(1H-pyrazol-4-ylmethyl)spiro[1H-isobenzofuran-3,4′-piperidine]-1-carboxamide]",≤ 50
18,Cc1ccc(CN2CCC3(CC2)OC(C(N)=O)c2ccc(Cl)cc23)cn1 (stereo not shown) [Compound 227],≤ 50
19,NC(=O)C1OC2(CCN(Cc3cnn4cccnc34)CC2)c2cc(Cl)ccc21 (stereo not shown) [Compound 228],50 to 500
20,NC(=O)C1OC2(CCN(Cc3c[nH]c4ncncc34)CC2)c2cc(Cl)ccc21 (stereo not shown) [Compound 229],≥ 500
21,CN1C(=O)Cc2ccc(CN3CCC4(CC3)OC(C(N)=O)c3ccc(Cl)cc34)cc21 (stereo not shown) [Compound 230],≤ 50
22,Cc1cc2ncc(CN3CCC4(CC3)OC(C(N)=O)c3ccc(Cl)cc34)cn2n1 (stereo not shown) [Compound 231],50 to 500
23,NC(=O)C1OC2(CCN(Cc3c[nH]c4nccnc34)CC2)c2cc(Cl)ccc21 (stereo not shown) [Compound 232],≤ 50

row,Compound,IC50 [nM]
1,CNC(=O)c1ccc(CN2CCC3(CC2)OC(C(N)=O)c2ccc(Cl)cc23)cc1 (stereo not shown) [Compound 233],≤ 50
2,NC(=O)C1OC2(CCN(Cc3cnc[nH]3)CC2)c2cc(Cl)ccc21 (stereo not shown) [Compound 234],≤ 50
3,NC(=O)C1OC2(CCN(Cc3cnn(C4CCOCC4)c3)CC2)c2cc(Cl)ccc21 (stereo not shown) [Compound 235],≤ 50
4,COCCn1cc(CN2CCC3(CC2)OC(C(N)=O)c2ccc(Cl)cc23)cn1 (stereo not shown) [Compound 236],50 to 500
5,Cc1noc2ncc(CN3CCC4(CC3)OC(C(N)=O)c3ccc(Cl)cc34)cc12 (stereo not shown) [Compound 237],50 to 500
6,NC(=O)C1OC2(CCN(Cc3cnc4c(c3)COCC4)CC2)c2cc(Cl)ccc21 (stereo not shown) [Compound 238],≥ 500
7,NC(=O)C1OC2(CCN(Cc3cnn(-c4cccnc4)c3)CC2)c2cc(Cl)ccc21 (stereo not shown) [Compound 239],≤ 50
8,NC(=O)c1cccc(CN2CCC3(CC2)OC(C(N)=O)c2ccc(Cl)cc23)c1F (stereo not shown) [Compound 240],≥ 500
9,CC1(n2cc(CN3CCC4(CC3)OC(C(N)=O)c3ccc(Cl)cc34)cn2)CCS(=O)(=O)C1 (stereo not shown) [Compound 241],≥ 500
10,NC(=O)C1OC2(CCN(Cc3cc(C4CC4)[nH]n3)CC2)c2cc(Cl)ccc21 (stereo not shown) [Compound 242],50 to 500
11,NC(=O)C1OC2(CCN(Cc3ccc(S(N)(=O)=O)cc3F)CC2)c2cc(Cl)ccc21 (stereo not shown) [Compound 243],50 to 500
12,CNc1ncc(CN2CCC3(CC2)OC(C(N)=O)c2ccc(Cl)cc23)cn1 (stereo not shown) [Compound 244],≤ 50
13,NC(=O)c1cnc(CN2CCC3(CC2)OC(C(N)=O)c2ccc(Cl)cc23)cn1 (stereo not shown) [Compound 245],50 to 500
14,COC(=O)c1ccc(CN2CCC3(CC2)OC(C(N)=O)c2ccc(Cl)cc23)cn1 (stereo not shown) [Compound 246],≤ 50
15,Cc1cc(CN2CCC3(CC2)OC(C(N)=O)c2ccc(Cl)cc23)nn1C (stereo not shown) [Compound 247],≥ 500
16,NC(=O)C1OC2(CCN(Cc3c[nH]c4cnccc34)CC2)c2cc(Cl)ccc21 (stereo not shown) [Compound 248],≤ 50
17,NC(=O)C1OC2(CCN(Cc3cc4n(n3)CCOC4)CC2)c2cc(Cl)ccc21 (stereo not shown) [Compound 249],≥ 500
18,COC(=O)c1ccc(CN2CCC3(CC2)OC(C(N)=O)c2ccc(Cl)cc23)nc1 (stereo not shown) [Compound 250],50 to 500
19,NC(=O)C1OC2(CCN(Cc3cnc(C4CC4)o3)CC2)c2cc(Cl)ccc21 (stereo not shown) [Compound 251],50 to 500
20,NC(=O)C1OC2(CCN(Cc3cncnc3)CC2)c2cc(Cl)ccc21 (stereo not shown) [Compound 252],≥ 500
21,Cn1cc(CN2CCC3(CC2)OC(C(N)=O)c2ccc(Cl)cc23)ccc1=O (stereo not shown) [Compound 253],50 to 500
22,NC(=O)C1OC2(CCN(Cc3cnn4c3NCCC4)CC2)c2cc(Cl)ccc21 (stereo not shown) [Compound 254],≥ 500
23,NC(=O)C1OC2(CCN(Cc3cocn3)CC2)c2cc(Cl)ccc21 (stereo not shown) [Compound 255],≥ 500

row,Compound,IC50 [nM]
1,NC(=O)C1OC2(CCN(Cc3cnc(N)nc3)CC2)c2cc(Cl)ccc21 (stereo not shown) [Compound 256],50 to 500
2,NC(=O)C1OC2(CCN(Cc3cnn(C4CC4)c3N)CC2)c2cc(Cl)ccc21 (stereo not shown) [Compound 257],50 to 500
3,Cc1cc(CN2CCC3(CC2)OC(C(N)=O)c2ccc(Cl)cc23)on1 (stereo not shown) [Compound 258],≥ 500
4,NC(=O)C1OC2(CCN(Cc3ccno3)CC2)c2cc(Cl)ccc21 (stereo not shown) [Compound 259],≥ 500
5,Cc1ncc(CN2CCC3(CC2)OC(C(N)=O)c2ccc(Cl)cc23)o1 (stereo not shown) [Compound 260],50 to 500
6,Cc1cc(CN2CCC3(CC2)OC(C(N)=O)c2ccc(Cl)cc23)ccn1 (stereo not shown) [Compound 261],50 to 500
7,NC(=O)C1OC2(CCN(Cc3c[nH]c4ccncc34)CC2)c2cc(Cl)ccc21 (stereo not shown) [Compound 264],≥ 500
8,Cc1cc(CN2CCC3(CC2)OC(C(N)=O)c2ccc(Cl)cc23)no1 (stereo not shown) [Compound 265],≥ 500
9,NC(=O)c1cccc(CN2CCC3(CC2)OC(C(N)=O)c2ccc(Cl)cc23)c1 (stereo not shown) [Compound 266],≥ 500
10,CC(C)(C)c1ncc(CN2CCC3(CC2)OC(C(N)=O)c2ccc(Cl)cc23)cn1 (stereo not shown) [Compound 267],≥ 500
11,Cc1cccc(CN2CCC3(CC2)OC(C(N)=O)c2ccc(Cl)cc23)n1 (stereo not shown) [Compound 268],≥ 500
12,Cn1ccc(CN2CCC3(CC2)OC(C(N)=O)c2ccc(Cl)cc23)cc1=O (stereo not shown) [Compound 269],≥ 500
13,NC(=O)C1OC2(CCN(Cc3ccc[nH]c3=O)CC2)c2cc(Cl)ccc21 (stereo not shown) [Compound 270],≥ 500
14,Cn1cc(CN2CCC3(CC2)OC(C(N)=O)c2ccc(Cl)cc23)c(=O)n(C)c1=O (stereo not shown) [Compound 271],≥ 500
15,NC(=O)C1OC2(CCN(Cc3cnccn3)CC2)c2cc(Cl)ccc21 (stereo not shown) [Compound 272],≥ 500
16,Cn1cnc(CN2CCC3(CC2)OC(C(N)=O)c2ccc(Cl)cc23)c1 (stereo not shown) [Compound 273],≥ 500
17,NC(=O)C1OC2(CCN(Cc3ccc(F)c(S(N)(=O)=O)c3)CC2)c2cc(Cl)ccc21 (stereo not shown) [Compound 274],≥ 500
18,Cc1c(CN2CCC3(CC2)OC(C(N)=O)c2ccc(Cl)cc23)cnn1C (stereo not shown) [Compound 275],≥ 500
19,Cc1nc(C)c(CN2CCC3(CC2)OC(C(N)=O)c2ccc(Cl)cc23)o1 (stereo not shown) [Compound 276],≥ 500
20,"CC(C)(O)[C@@H](O)Cn1cc(CN2CCC3(CC2)OC(C(N)=O)c2ccc(Cl)cc23)cn1 (stereo partly drawn) [Compound 277, 5-chloro-1′-[[1-[(2S)-2,3-dihydroxy-3-methyl-butyl]pyrazol-4-yl]methyl]spiro[1H-isobenzofuran-3,4′-piperidine]-1-carboxamide]",≤ 50
21,"CC(C)(O)[C@H](O)Cn1cc(CN2CCC3(CC2)OC(C(N)=O)c2ccc(Cl)cc23)cn1 (stereo partly drawn) [Compound 278, 5-chloro-1′-[[1-[(2R)-2,3-dihydroxy-3-methyl-butyl]pyrazol-4-yl]methyl]spiro[1H-isobenzofuran-3,4′-piperidine]-1-carboxamide]",≤ 50
